Measurements taken from article PMC9747113 (Clinical and Translational Science, 2022).
“Also recorded” adds a separate entry of the source.

Experiments:
[1] = Tolerability in fed and fasted states; format: in vivo; settings: fed vs fasted
[2] = tested on: BTK; settings: 2 h after the first dose; cited from earlier work
[3] = tested on: BTK; settings: cited from earlier work
[4] = Population PK model of evobrutinib plasma concentration-time data
[5] = between-participant variability, variance estimate
[6] = final population PK model, oral tablet

C=CC(=O)N1CCC(CNc2ncnc(N)c2-c2ccc(Oc3ccccc3)cc2)CC1 [evobrutinib, Evobrutinib]
Tolerability in fed and fasted states [1]: equivalent | BTKO in peripheral blood [2]: high degree of BTKO | BTKO, median at trough ([3]; after 14 days of 25 mg q.d. while fasted): 88% | BTK occupancy at 96 h postdose ([3]; single doses ≥100 mg while fasted): > 50% | maximum BTK occupancy ([3]; within 4 h of single doses ≥200 mg while fasted): > 90% | BPV ALAG, Estimate (RSE %) [4, 5]: 0.156 (40.2) | BPV CL/F, Estimate (RSE %) [4, 5]: 0.0958 (23.0) | BPV D 1 Fasted, Estimate (RSE %) [4, 5]: 1.39 (47.2) | BPV D 1 Fed, Estimate (RSE %) [4, 5]: 1.39 (47.2) | BPV Q/F, Estimate (RSE %) [4, 5]: 1.17 (24.1) | BPV V2/F, Estimate (RSE %) [4, 5]: 0.627 (31.9) | BPV V3/F, Estimate (RSE %) [4, 5]: 1.86 (22.7) | Effect of ethnicity (Japanese vs non-Japanese) on PK parameters ([4]; covariate test): no difference; also recorded: not a significant covariate | ALAG (absorption lag time) [4, 6]: 0.235 h | CL/F (apparent clearance) [4, 6]: 273 L/h | K a (first-order absorption rate constant) [4, 6]: 0.784 h⁻¹ | V3/F (apparent peripheral volume of distribution) [4, 6]: 446 L | Vd/F ([4]; human, in vivo, po): 61.1 L | Increase of bioavailability with food compared with fasted ([4]; low-fat meal vs fasted): 49%
